Data taken from publication PMC4264453 (British Journal of Cancer, 2014).
Where a name gives a salt, the structure may show the parent alone.

How the values were obtained:
[1] = Eribulin plasma pharmacokinetics; assay type: in vivo, human; conditions: for AUC(0-inf) / clearance / Cmax / half-life / Vd: human, plasma, intravenous; for AUC(0-inf): AUC0-inf; for clearance: CL; for Vd: Vss
[2] = system: patients with advanced solid tumours; assay type: in vivo, human; conditions: days 1, 8 with cisplatin 75 mg m^−2 day 1, 21-day cycle
[3] = system: patients with advanced solid tumours; conditions: 4 mg m^−2 cohort; ref Tan et al, 2009; cited from earlier work
[4] = system: patients; conditions: ref Synold et al, 2005, cited from earlier work
[5] = system: patients with advanced solid malignancies; conditions: ref Goel et al, 2009; cited from earlier work
[6] = no reference given; cited from earlier work
[7] = 60 mg, Dose level 3: eribulin mesylate 1.2 with cisplatin 60 mg m^−2, first dose, N=4, mean (s.d.)
[8] = 60 mg, Dose level 5: eribulin mesylate 1.4 with cisplatin 60 mg m^−2, first dose, N=6, mean (s.d.)
[9] = 75 mg, Dose level 6: eribulin mesylate 1.2 with cisplatin 75 mg m^−2, first dose, N=3, mean (s.d.)

## C=C1C[C@@H]2CC[C@@]34C[C@H]5O[C@H]6[C@@H](O3)[C@H]3O[C@H](CC[C@@H]3O[C@H]6[C@H]5O4)CC(=O)C[C@@H]3[C@@H](OC)[C@@H](C[C@H](O)CN)O[C@H]3C[C@H]3O[C@@H](CC[C@@H]1O2)C[C@@H](C)C3=C [Eribulin mesylate]
[1]; compared to previously reported single agent data (Goel et al, 2009; Tan et al, 2009)
  effect of cisplatin co-administration on the disposition of eribulin mesylate: no apparent effect
[1]; eribulin 1.2–1.4 mg m^−2 with cisplatin
  dose proportionality of mean Cmax and AUC0-inf: did not increase in a dose-proportional manner
[1]; [7]
  AUC(0-inf): 1500 ng·h/mL
  clearance: 26.7 mL/min
  Cmax: 466 ng/mL
  Vd: 51.4 L
[1]; [8]
  AUC(0-inf): 1100 ng·h/mL
  clearance: 38.3 mL/min
  Cmax: 508 ng/mL
  Vd: 77.7 L
[1]; 60 mg, T1/2, Dose level 3: eribulin mesylate 1.2 with cisplatin 60 mg m^−2, first dose, N=4, mean (s.d.)
  half-life: 2450 min
[1]; 60 mg, T1/2, Dose level 5: eribulin mesylate 1.4 with cisplatin 60 mg m^−2, first dose, N=6, mean (s.d.)
  half-life: 2190 min
[1]; [9]
  AUC(0-inf): 1030 ng·h/mL
  clearance: 36.7 mL/min
  Cmax: 695 ng/mL
  Vd: 68.4 L
[1]; 75 mg, T1/2, Dose level 6: eribulin mesylate 1.2 with cisplatin 75 mg m^−2, first dose, N=3, mean (s.d.)
  half-life: 2130 min
[2]
  MTD and recommended phase II dose of eribulin mesylate in combination with cisplatin: 1.2 mg m^−2
[3]
  patients experiencing febrile neutropenia (dominant DLT): all three patients
[4]; lung, breast, and thyroid
  minor responses: three
[4]; range 2–14 months
  median duration of stable disease: 4 months
[4]
  patients exhibiting stable disease as the best response: 12 patients
[4]; single agent
  dose at which grade 3 toxicity first occurred: 0.5 mg m^−2
[5]
  principal DLT: neutropenia
[6]
  administered dose recovered in urine: < 8%
